According to publication PMC7126545 (Bioorganic & Medicinal Chemistry Letters, 2016):

Tests used:
in vitro [1] = details: mouse (L1210), human (CEM, HeLa)
in vitro [2] = assay: in vitro
[3] = tested on: L1210, CEM and HeLa cells; details: for cytostatic activity (in words): tumour cell lines

C#C[C@@]1(O)[C@@H](CO)O[C@@H](n2cnc3c(NCc4cccc(Cl)c4)nc(Cl)nc32)[C@@H]1O [Compound 10]
IC50 (in vitro [1]): 22 to 50 µM | CC50 (in vitro [2]): 34.5 µM | times less potent than EAdo ([3]; cytostatic potency relative to EAdo in the three cell lines): at least 30

C#C[C@@]1(O)[C@@H](CO)O[C@@H](n2cnc3c(N)nc(Cl)nc32)[C@@H]1O [Compound 7]
cytostatic activity (in words) [3]: did not show any cytostatic activity

C#C[C@@]1(O)[C@@H](CO)O[C@@H](n2cnc3c(N)ncnc32)[C@@H]1O [Compound 1, 3′-C-ethynyladenosine, reference compound]
cytostatic activity (in words) [3]: potent cytostatic activity
